Results published in patent US20240226098A1, “COMPOUNDS AND METHODS FOR MODULATING SPLICING” (REMIX THERAPEUTICS INC., priority 2020, published 2024).

How the values were obtained:
Format in all cases: cell-based
[1] = system: HTT mRNA, canonical junction (CJ); experiment: Splicing assay (RT-qPCR): decrease in HTT canonical junction (CJ) mRNA; details: A673 or K562 cell line, 24 hours treatment, top dose 10 uM; concentration having 50% response in CJ decrease
Method: (§1) Compounds described herein were used to modulate RNA transcript abundance in cells. The expression of a target mRNA was measured by detecting the formation of an exon-exon junction in the canonical transcript (CJ). A compound mediated exon-inclusion event was detected by observing an increase in formation of a new junction with an alternative exon (AJ). Real-time qPCR assays were used to detect these splicing switches and interrogate the potency of various compounds towards different target genes. A high-throughput real time quantitative PCR (RT-qPCR) assay was developed to measure these two isoforms of the mRNA (CJ and AJ) for an exemplary gene, HTT, together with a control housekeeping gene, GAPDH or GUSB or PPIA, used for normalization. Briefly, the A673 or K562 cell line was treated with various compounds described herein (e.g., compounds of Formula (I)). After treatment, the levels of the HTT mRNA targets were determined from each sample of cell lysate by cDNA synthesis followed by qPCR.
(§2) • Cells-to-CT 1-step kit: ThermoFisher A25602, Cells-to-CT lysis reagent: ThermoFisher 4391851C, TaqMan™ Fast Virus 1-Step Master Mix: ThermoFisher 4444436 • GAPDH: VIC-PL, ThermoFisher 4326317E (Assay: Hs99999905_ml)—used for K562/suspension cell lines • GUSB: VIC-PL, ThermoFisher 4326320E (Assay: Hs99999908_ml)—used for K562/suspension cell lines • PPIA: VIC-PL, ThermoFisher 4326316E (Assay: Hs99999904_ml)—used for A673/adherent cell lines
(§3) The A673 cell line was cultured in DMEM with 10% FBS. Cells were diluted with full growth media and plated in a 96-well plate (15,000 cells in 100 ul media per well). The plate was incubated at 37° C. with 5% CO2 for 24 hours to allow cells to adhere. An 11-point 3-fold serial dilution of the compounds was made in DMSO then diluted in media in an intermediate plate. Compounds were transferred from the intermediate plate to the cell plate with the top dose at a final concentration of 10 uM in the well. Final DMSO concentration was kept at or below 0.25%. The cell plate was returned to the incubator at 37° C. with 5% CO2 for an additional 24 hours.
(§4) The K562 cell line was cultured in IMDM with 10% FBS. For K562, cells were diluted with full growth media and plated in either a 96-well plate (50,000 cells in 50 uL media per well) or a 384-well plate (8,000-40,000 cells in 45 uL media per well). An 11-point 3-fold serial dilution of the compounds were made in DMSO then diluted in media in an intermediate plate. Compound was transferred from the intermediate plate to the cell plate with the top dose at a final concentration of 10 uM in the well. Final DMSO concentration was kept at or below 0.25%. Final volume was 100 uL for 96-well plate and 50 uL for 384-well plate. The cell plate was then placed in an incubator at 37° C. with 5% CO2 for 24 hours.
(§5) The cells were then gently washed with 50 uL-100 uL cold PBS before proceeding to addition of lysis buffer. 30 uL-50 uL of room temperature lysis buffer with DNAse I (and optionally RNAsin) was added to each well. Cells were shaken/mixed thoroughly at room temperature for 5-10 minutes for lysis to take place and then 3 uL-5 uL of room temperature stop solution was added and wells were shaken/mixed again. After 2-5 minutes, the cell lysate plate was transferred to ice for RT-qPCR reaction setup. The lysates could also be frozen at −80° C. for later use.
(§6) In some cases, a direct lysis buffer was used. An appropriate volume of 3× lysis buffer (10 mM Tris, 150 mM NaCl, 1.5%-2.5% Igepal and 0.1-1 U/uL RNAsin, pH 7.4) was directly added to either K562 or A673 cells in media and mixed by pipetting 3 times. The plates were then incubated at room temperature with shaking/rocking for 20-50 minutes to allow for lysis to take place. After this time, the cell lysate plate was transferred to ice to set up for the RT-qPCR reactions. The lysates could also be frozen at −80° C. for later use. […]

[2] = system: Target C CJ mRNA; experiment: Gene panel canonical junction qPCR assay: decrease in Target C CJ mRNA; details: protocol as for Table 2, read-out: Target C (IC50, decrease in CJ mRNA levels)
Method: as §1, §3, §4, §5
(§7) In some cases, a direct lysis buffer was used. An appropriate volume of 3× lysis buffer (10 mM Tris, 150 mM NaCl, 1.5%-2.5% Igepal and 0.1-1 U/uL RNAsin, pH 7.4) was directly added to either K562 or A673 cells in media and mixed by pipetting 3 times. The plates were then incubated at room temperature with shaking/rocking for 20-50 minutes to allow for lysis to take place. After this time, the cell lysate plate was transferred to ice to set up for the RT-qPCR reactions. The lysates could also be frozen at −80° C. for later use.
(§8) To set up 10 uL RT-qPCR reactions, cell lysates were transferred to 384-well qPCR plates containing the master mix according to the table below. The plates were sealed, gently vortexed, and spun down before the run. The volumes were adjusted accordingly in some instances where the reaction was carried in 20 uL. The table below summarizes the components of the RT-qPCR reactions:
(§9) The RT-qPCR reaction was performed using a QuantStudio (ThermoFisher) under the following fast cycling conditions. […]

[3] = system: HTT CJ mRNA; experiment: Gene panel canonical junction qPCR assay: decrease in HTT CJ mRNA; details: protocol as for Table 2, read-out: HTT (IC50, decrease in CJ mRNA levels)
Method: as §1, §3, §4, §5, §7, §8, §9

[4] = system: HTT mRNA, alternative junction (AJ); experiment: Splicing assay (RT-qPCR): increase in HTT alternative junction (AJ) mRNA; details: A673 or K562 cell line, 24 hours treatment, top dose 10 uM; concentration having 50% response in AJ increase
Method: as §1, §2, §3, §4, §5, §6

[5] = system: SMN2 CJ mRNA; experiment: Gene panel canonical junction qPCR assay: decrease in SMN2 CJ mRNA; details: protocol as for Table 2, read-out: SMN2 (IC50, decrease in CJ mRNA levels)
Method: as §1, §3, §4, §5, §7, §8, §9

## Cc1cn2cc(NC(=O)c3ccc(N4CC5(CN(C)C5)C4)c4ccnnc34)cc(F)c2n1 [Compound 132, N-[8-fluoro-2-methylimidazo[1,2-a]pyridin-6-yl]-5-[6-methyl-2,6-diazaspiro[3.3]heptan-2-yl]cinnoline-8-carboxamide]
[1]
  AC50: 1000 to 10000 nM
[2]
  IC50: < 100 nM
[3]
  IC50: 1000 to 10000 nM
[4]
  AC50: 1000 to 10000 nM
[5]
  IC50: < 100 nM

## Cc1cn2cc(NC(=O)c3ccc(N4CCC(N(C)C)C4)c4ccnnc34)cc(F)c2n1 (centres unmarked) [Compound 134, 5-[3-(dimethylamino)pyrrolidin-1-yl]-N-[8-fluoro-2-methylimidazo[1,2-a]pyridin-6-yl]cinnoline-8-carboxamide]
[1]
  AC50: 1000 to 10000 nM
[2]
  IC50: 1000 to 10000 nM
[3]
  IC50: 1000 to 10000 nM
[4]
  AC50: 1000 to 10000 nM
[5]
  IC50: < 100 nM

## Cc1cn2cc(NC(=O)c3ccc(N4CCNCC4)c4ccnnc34)c(C)cc2n1 [Compound 119, N-[2,7-dimethylimidazo[1,2-a]pyridin-6-yl]-5-(piperazin-1-yl) cinnoline-8-carboxamide]
[1]
  AC50: 1000 to 10000 nM
[2]
  IC50: 1000 to 10000 nM
[3]
  IC50: 1000 to 10000 nM
[4]
  AC50: 1000 to 10000 nM
[5]
  IC50: < 100 nM

## Cc1cn2cc(NC(=O)c3ccc(N4CCN(C)CC4)c4ccnnc34)cc(F)c2n1 [Compound 127, N-[8-fluoro-2-methylimidazo[1,2-a]pyridin-6-yl]-5-(4-methylpiperazin-1-yl) cinnoline-8-carboxamide]
[1]
  AC50: 1000 to 10000 nM
[2]
  IC50: 1000 to 10000 nM
[3]
  IC50: 1000 to 10000 nM
[4]
  AC50: 1000 to 10000 nM
[5]
  IC50: < 100 nM

## Cc1nc2c(F)cc(NC(=O)c3ccc(N4CCNCC4)c4ccnnc34)cc2s1 [Compound 118, N-(4-fluoro-2-methyl-1,3-benzothiazol-6-yl)-5-(piperazin-1-yl) cinnoline-8-carboxamide]
[1]
  AC50: 100 to 1000 nM
[2]
  IC50: 100 to 1000 nM
[3]
  IC50: 100 to 1000 nM
[4]
  AC50: 100 to 1000 nM
[5]
  IC50: < 100 nM

## CCC1CN(c2ccc(C(=O)Nc3cc(F)c4nc(C)cn4c3)c3nnccc23)CCN1 (stereo in doubt) [Compound 152, 5-[(3R)-3-ethylpiperazin-1-yl]-N-[8-fluoro-2-methylimidazo[1,2-a]pyridin-6-yl]cinnoline-8-carboxamide]
[1]
  AC50: 1000 to 10000 nM
[2]
  IC50: > 10000 nM
[3]
  IC50: 1000 to 10000 nM
[4]
  AC50: 1000 to 10000 nM
[5]
  IC50: < 100 nM

## Cc1cn2cc(NC(=O)c3ccc(N4CCC(N(C)C)CC4)c4nccnc34)cc(F)c2n1 [Compound 158, 8-[4-(dimethylamino)piperidin-1-yl]-N-[8-fluoro-2-methylimidazo[1,2-a]pyridin-6-yl] quinoxaline-5-carboxamide]
[1]
  AC50: 100 to 1000 nM
[2]
  IC50: 1000 to 10000 nM
[3]
  IC50: 100 to 1000 nM
[4]
  AC50: 100 to 1000 nM
[5]
  IC50: < 100 nM

## Cn1cc2c(F)cc(NC(=O)c3ccc(N4CCNCC4)c4ccnnc34)cc2n1 [Compound 116, N-(4-fluoro-2-methylindazol-6-yl)-5-(piperazin-1-yl) cinnoline-8-carboxamide]
[1]
  AC50: > 10000 nM
[2]
  IC50: > 10000 nM
[3]
  IC50: > 10000 nM
[4]
  AC50: > 10000 nM
[5]
  IC50: > 10000 nM

## Cc1cn2cc(NC(=O)c3ccc(N4CCNCC4)c4cncnc34)cc(F)c2n1 [Compound 112, N-[8-fluoro-2-methylimidazo[1,2-a]pyridin-6-yl]-5-(piperazin-1-yl)quinazoline-8-carboxamide]
[1]
  AC50: 1000 to 10000 nM
[2]
  IC50: 100 to 1000 nM
[3]
  IC50: 1000 to 10000 nM
[4]
  AC50: 1000 to 10000 nM
[5]
  IC50: < 100 nM

## Cc1cn2cc(NC(=O)c3ccc(N4CCN(C)C(C)C4)c4ccnnc34)cc(F)c2n1 (stereo in doubt) [Compound 149, 5-[(3S)-3,4-dimethylpiperazin-1-yl]-N-[8-fluoro-2-methylimidazo[1,2-a]pyridin-6-yl]cinnoline-8-carboxamide]
[1]
  AC50: 1000 to 10000 nM
[2]
  IC50: 1000 to 10000 nM
[3]
  IC50: 1000 to 10000 nM
[4]
  AC50: 1000 to 10000 nM
[5]
  IC50: < 100 nM

## Cc1cn2cc(NC(=O)c3ccc(N4CCNCC4)c4ccnnc34)cc(F)c2n1 [Compound 101, N-[8-fluoro-2-methylimidazo[1,2-a]pyridin-6-yl]-5-(piperazin-1-yl) cinnoline-8-carboxamide]
[1]
  AC50: 100 to 1000 nM
[2]
  IC50: 1000 to 10000 nM
[3]
  IC50: 100 to 1000 nM
[4]
  AC50: 100 to 1000 nM
[5]
  IC50: < 100 nM

## Cc1cn2nc(NC(=O)c3ccc(N4CCNCC4)c4ccnnc34)cc2c(C)n1 [Compound 123, N-[4,6-dimethylpyrazolo[1,5-a]pyrazin-2-yl]-5-(piperazin-1-yl)cinnoline-8-carboxamide]
[1]
  AC50: 1000 to 10000 nM
[2]
  IC50: 1000 to 10000 nM
[3]
  IC50: 1000 to 10000 nM
[4]
  AC50: 1000 to 10000 nM
[5]
  IC50: 1000 to 10000 nM

## Cc1cn2cc(NC(=O)c3ccc(N4CCNCC4)c4ccnnc34)cc(C)c2n1 [Compound 125, N-[2,8-dimethylimidazo[1,2-a]pyridin-6-yl]-5-(piperazin-1-yl)cinnoline-8-carboxamide]
[1]
  AC50: 1000 to 10000 nM
[2]
  IC50: 1000 to 10000 nM
[3]
  IC50: 1000 to 10000 nM
[4]
  AC50: 1000 to 10000 nM
[5]
  IC50: < 100 nM

## Cc1cn2cc(NC(=O)c3ccc(N4CCNC(C)C4)c4ccnnc34)cc(F)c2n1 (stereo in doubt) [Compound 147, N-[8-fluoro-2-methylimidazo[1,2-a]pyridin-6-yl]-5-[(3R)-3-methylpiperazin-1-yl]cinnoline-8-carboxamide]
[1]
  AC50: 1000 to 10000 nM
[2]
  IC50: 1000 to 10000 nM
[3]
  IC50: 1000 to 10000 nM
[4]
  AC50: 1000 to 10000 nM
[5]
  IC50: < 100 nM

## Cc1cn2cc(NC(=O)c3ccc(N4CCC(N5CCCC5)C4)c4ccnnc34)cc(F)c2n1 (centres unmarked) [Compound 133, 5-[[1,3-bipyrrolidin]-1-yl]-N-[8-fluoro-2-methylimidazo[1,2-a]pyridin-6-yl]cinnoline-8-carboxamide]
[1]
  AC50: 1000 to 10000 nM
[2]
  IC50: 1000 to 10000 nM
[3]
  IC50: 1000 to 10000 nM
[4]
  AC50: 1000 to 10000 nM
[5]
  IC50: < 100 nM

## Cc1cc2c(N3CCNCC3)ccc(C(=O)Nc3cc(F)c4nc(C)cn4c3)c2nn1 [Compound 159]
[1]
  AC50: 100 to 1000 nM
[2]
  IC50: 1000 to 10000 nM
[3]
  IC50: 100 to 1000 nM
[4]
  AC50: 100 to 1000 nM
[5]
  IC50: < 100 nM
